These are literature values, as cited in patent publication US20020010164A1, “Low oxygen content compositions of 1alpha, 25-dihydroxycholecalciferol” (priority 1999, published 2002).

For the molecule `C=C1/C(=C\C=C2/CCCC3(C)C2CCC3C(C)CCCC(C)(C)O)CC(O)CC1O` (stereo not drawn) [1α, 25-dihydroxycholecalciferol], under “organic solvents”, the “solubility in organic solvents” value was “soluble”. Moreover, the solubility in water result (water) is listed as “practically insoluble”.
